According to PMC6530361, “Anti-tumor Efficacy Assessment of the Sigma Receptor Pan Modulator RC-106. A Promising Therapeutic Tool for Pancreatic Cancer” (Frontiers in Pharmacology, 2019):

Tests used:
[1] = system: proteasome activity of Capan-2; assay: Proteasome activity assay; format: cell-based; settings: Capan-2, 24 h
Method: (§1) Cells were seeded in 6-well plates at density of 250 × 10^3 cells/well. Cells were treated with increasing concentration of RC-106 and after 24 h total protein extracts were obtained: cells were washed 2 times with PBS and lysed with 100 μL of lysis buffer (Hepes 5 mM pH 7.5, NaCl 150 mM, Glycerol 10%, Triton X100 1%, MgCl2 1.5 mM, EGTA 5 mM). Protein concentration of samples was quantified using Bradford method. Proteasome activity was quantified as described below. Proteasome solution was composed by 40 μg of proteins, 10 μL of 10X proteasome buffer (Hepes pH 7.5 250 mM, EDTA pH 8.0 5 mM, NP-40 0.5%, SDS 0.01%) and 10 μL of 10 mM proteasome substrate (N-Succinyl-Leu-Leu-Val-Tyr-7-Amido-4-Methylcoumarin, 7.6 mg/mL; Sigma-Aldrich, United States). 100 μL of proteasome solution was loaded in wells of a black 96-well plate. The plate was then incubated at 37°C for 2 h and the fluorescence was measured in a microplate reader (excitation 380 nm, emission 460 nm; BMG-Labtech, Germany).

[2] = system: proteasome activity of Capan-1; assay: Proteasome activity assay; format: cell-based; settings: Capan-1, 24 h, highest concentration used
Method: as §1

[3] = system: Panc-1, Capan-1, and Capan-2; assay: Real-Time qRT-PCR of ER stress/UPR marker genes, all cell lines; format: cell-based; settings: exposure to 50 μM; 6, 12, and 24 h
Method: Total cellular RNA was extracted using TRIzol reagent (Life technologies) in accordance with manufacturer’s instruction and quantified using the Nanodrop MD-1000 spectrophotometer system. Reverse transcription reactions were performed in 20 μL of nuclease free water containing 400 ng of total RNA using iScript cDNA Synthesis kit (Bio-Rad Laboratories, Hercules, CA). Real-Time PCR was run using 7500 Fast Real-Time PCR system (Applied Biosystems) and TaqMan assays to detect the expression of SIGMAR1, TMEM97, GRP78/BiP, ATF4, and CHOP genes.
Reactions were carried out in triplicate at a final volume of 20 μL containing 40 ng of cDNA template, TaqMan universal PCR Master Mix (2X), and selected TaqMan assays (20X). Samples were maintained at 50°C for 2 min, then at 95°C for 10 min followed by 40 amplification cycles at 95°C for 15 s, and at 60°C for 30 s.
The amount of mRNA was normalized to the endogenous genes GAPDH and HPRT-1.

S1R = system: S1R; set-up: method as in Rui et al., 2016; Rossi et al., 2017; settings: ref Rui et al., 2016; Rossi et al., 2017; cited from earlier work
Capan-1 [4] = assay: Migration scratch wound healing assay; format: cell-based
Method: (§2) Cells were seeded in a 6-well plate and were incubated at 37°C until confluence of 90–100% was reached. Culture medium was then replaced by serum free medium. After 24 h, a scratch was made on cell monolayer using a plastic tip and wells were washed 2 times with PBS to remove detached cells and debris. Culture medium, with or without RC-106, was added to each well. Micrographs of the scratches were taken at 0 h, immediately after the scratch, and at 24, 48, and 72 h. Cell migration area was quantified using IMAGEJ software.

Capan-2 [5] = assay: Migration scratch wound healing assay; format: cell-based; settings: Capan-2, 20 and 40 μM, after 48 and 72 h
Method: as §2

Panc-1 [6] = assay: Migration scratch wound healing assay; format: cell-based; settings: Panc-1, 60 μM, all considered time points (24, 48, 72 h)
Method: as §2

Capan-1 [7] = assay: TUNEL assay; format: cell-based; settings: Capan-1, RC-106 50 μM, 48 h
Method: (§3) TUNEL assay was performed as previously described ([Tesei et al., 2007]). Briefly, cells were fixed in 1% formaldehyde in PBS on ice for 15 min, suspended in 70% ice cold ethanol and stored overnight at […]. Cells were then washed twice in PBS and re-suspended in PBS containing 0.1% Triton X-100 for 5 min at […]. Thereafter, samples were incubated in 50 μL of solution containing TdT and FITC conjugated dUTP deoxynucleotides 1:1 (Roche Diagnostic GmbH, Mannheim, Germany) in a humidified atmosphere for 90 min at 37°C in the dark, washed in PBS, counterstained with propidium iodide (2.5 μg/mL, MP Biomedicals, Verona, Italy) and RNAse (10 kU/mL, Sigma–Aldrich) for 30 min at […] in the dark and analyzed by flow cytometry. Flow cytometric analysis was performed using a FACS Canto flow cytometer (Becton Dickinson, San Diego, CA, United States). Data acquisition and analysis were performed using FACSDiva software (Becton Dickinson). Samples were run in triplicate and 10,000 events were collected for each replicate.

Panc-1 [8] = assay: TUNEL assay; format: cell-based; settings: Panc-1, RC-106 50 μM, 48 h
Method: as §3

S2R = system: S2R; set-up: method as in Rui et al., 2016; Rossi et al., 2017; settings: ref Rui et al., 2016; Rossi et al., 2017; cited from earlier work
Capan-1 [9] = assay: Western Blot of caspase 3 and 9 activation; format: cell-based; settings: Capan-1, 12 h, 50 μM
Method: (§4) Western Blot were performed as previously described ([Arienti et al., 2016]). Briefly, Cell proteins were extracted with M-PER (Thermo Fisher Scientific) supplemented with Halt Protease Phosphatase Inhibitor Cocktail (Thermo Fisher Scientific).
(§5) Mini-PROTEANTGX^TM precast gels (4–20% and any kD; BIO-RAD) were run using Mini-PROTEAN Tetra electrophoresis cells and then electroblotted by Trans-Blot Turbo^TM Mini PVDF Transfer Packs (BIORAD). The unoccupied membrane sites were blocked with T-TBS 1X (Tween 0.1%) and 5% non-fat dry milk to prevent non-specific binding of antibodies and probed with specific primary antibodies overnight at 4°C. This was followed by incubation with the respective secondary antibodies. The antibody-antigen complexes were detected with Immun-Star^TM WesternC^TM kit (BIO-RAD).
(§6) The following primary antibodies were used: anti-sigma receptor (S18): sc-22948 (Santa Cruz Biotechnology inc.), anti-TMEM97, anti-caspase-3, and anti-caspase-9. Anti-vinculin (sc-5573) from Santa Cruz Biotechnology and anti-actin from Sigma Aldrich Inc., were used as housekeeping. Quantity One Software was used for analysis.

Capan-2 [10] = assay: Western Blot of caspase 3 and 9 activation; format: cell-based; settings: Capan-2, 48 h, 25 μM
Method: as §4, §5, §6

Panc-1 [11] = assay: Western Blot of caspase 3 and 9 activation; format: cell-based; settings: Panc-1, 48 h, 25 μM
Method: as §4, §5, §6

Compound: C/C(=C\CN1CCC(Cc2ccccc2)CC1)c1ccc2ccccc2c1 [RC-106, (E)-4-benzyl-1-(3-(naphthalen-2-yl)but-2-en-1-yl)piperidine]
- lowest concentration used to inhibit proteasome activity [1]: 20 µM
- concentration at which greatest proteasome inhibition is observed [2]: 100 µM
- mRNA expression of ER markers GRP78/BiP, ATF4, and CHOP [3]: highly increased
- S1R modulatory profile (S1R): S1R antagonist
- cell migration (Capan-1 [4]; Capan-1, 20 μM, after 48 h): significantly reduced
- cell migration (Capan-1 [4]; Capan-1, 40 and 60 μM, after 24 h): reduced cell migration
- cell migration (Capan-2 [5]): significatively reduceded
- cell migration (Panc-1 [6]): significatively reduced
- percentage of apoptotic cells (Capan-1 [7]): 78.55%
- percentage of apoptotic cells (Panc-1 [8]): 53.25%
- S2R modulatory profile (S2R): S2R agonist
- caspases 3 and 9 cleavage (Capan-1 [9]): cleaved
- caspases 3 and 9 cleavage (Capan-2 [10]): cleaved
- caspases 3 and 9 cleavage (Panc-1 [11]): cleaved
